The values that follow come from patent US10150743B2, “Carboxylic acid compounds” (priority 2012, dated 2018).

A value given as a limit tells only on which side of the number the result lay.

The subject of test [1] is Renca mouse tumour cells. Briefly: Tumour growth studies in Renca, a murine syngeneic renal carcinoma tumour model. The format is in vivo. To be noted: Balb/C mice, 3 mg/kg once a week p.o. on days 1, 8, 15; vs 0.5% methylcellulose; FIG. 10. How it is done:
Experiments were conducted on female mice (Balb/C genotype, at least 5 weeks old). Renca mouse tumour cells (Cancer Chemother Pharmacol. 1995; 36 (1): 7-12) were kindly provided by Dr. T. Fujioka at Department of Urology, Iwate Medical University School of Medicine. Renca mouse tumour cells (5×10^4) were implanted subcutaneously in the flank of mice on day 0. Mice were treated with either drug vehicle (0.5% methylcellulose), the compound of Example 3 (0.3 mg/kg once a week) or the compound of Example 4 (3 mg/kg once a week) administered orally (p. o.) on days 1, 8, and 15. Tumour volumes were assessed at least twice weekly by bilateral vernier caliper measurements.
Tumour growth inhibition from the start of treatment was assessed by comparison of the differences in tumour growth rate between control and the compound of Example 3 treated groups, as shown in FIG. 9.
Tumour growth inhibition from the start of treatment was assessed by comparison of the differences in tumour growth rate between control and the compound of the Example 4 treated groups, as shown in FIG. 10.

For test [2], the target named is hERG potassium channel (Homo sapiens (Human), UniProt Q12809). Nature of the test: hERG Analysis - Method 2 (QPATCH HT, CHO-hERG cells). The format is cell-based. The settings on record: half-maximal inhibition concentration, 22±2° C. As for the experimental part:
The hERG potassium current was measured in a hERG-stably-expressing Chinese hamster ovary K1 (CHO) cells. The experiments were performed using an automated planar patch-clamp system QPATCH HT (Sophion Bioscience A/S). The application of pressure for forming gigaseals and whole-cell patch clamp configuration were established using the QPATCH assay software. Patch-clamp experiments were performed in voltage-clamp mode and whole-cell currents were recorded from individual cells. The following stimulation protocol was applied to investigate the effects of compounds on hERG potassium channel: The membrane potential was held at −80 mV and repetitively (every 15 s) depolarized to +20 mV for 5 s after the pulse to −50 mV for 20 ms served to define the baseline, followed by repolarizing step to −50 mV for 5 s to evaluate of the tail current amplitude. Experiments were conducted at room temperature (22±2° C.).
Effects of compounds were determined from cumulative applications of increasing 4 concentrations and calculated as percent of blocked current. The data points were fitted with Hill equation to calculate half-maximal inhibition concentrations. The test solution includes: Extracellular solution (mM): 2 mM of CaCl2, 1 mM of MgCl2, 10 mM of HEPES, 4 mM of KCl, 145 mM of NaCl, and 10 mM of Glucose; and Intracellular solution (mM): 5.4 mM of CaCl2, 1.8 mM of MgCl2, 10 mM of HEPES, 31 mM of KOH, 10 mM of EGTA, 120 mM of KCl, and 4 mM of ATP.
Background: hERG is a cardiac potassium channel; its block is linked to QT prolongation.

For test [3], the target named is human TLR7 (Homo sapiens (Human), UniProt Q9NYK1). Nature of the test: Human TLR7 assay (SEAP reporter in HEK293). Format: cell-based. The settings on record: SEAP induction, overnight incubation at 37° C., 0.1% DMSO; read-out: TLR7 (pEC50) (converted). From the text: Recombinant human TLR7 was stably expressed in a HEK293 cell line already stably expressing the pNiFty2-SEAP reporter plasmid; integration of the reporter gene was maintained by selection with the antibiotic zeocin. The most common variant sequence of human TLR7 (represented by the EMBL sequence AF240467) was cloned into the mammalian cell expression vector pUNO and transfected into this reporter cell-line. Transfectants with stable expression were selected using the antibiotic blasticidin. In this reporter cell-line, expression of secreted alkaline phosphatase (SEAP) is controlled by an NFkB/ELAM-1 composite promoter comprising five NFkB sites combined with the proximal ELAM-1 promoter. TLR signaling leads to the translocation of NFkB and activation of the promoter results in expression of the SEAP gene. TLR7-specific activation was assessed by determining the level of SEAP produced following overnight incubation of the cells at 37° C. with the standard compound in the presence of 0.1% (v/v) dimethylsulfoxide (DMSO). Concentration dependent induction of SEAP production by compounds was expressed as the concentration of compound which produced half of the maximal level of SEAP induction for that compound (EC50).
human TLR7, sequence (Q9NYK1 27-1049): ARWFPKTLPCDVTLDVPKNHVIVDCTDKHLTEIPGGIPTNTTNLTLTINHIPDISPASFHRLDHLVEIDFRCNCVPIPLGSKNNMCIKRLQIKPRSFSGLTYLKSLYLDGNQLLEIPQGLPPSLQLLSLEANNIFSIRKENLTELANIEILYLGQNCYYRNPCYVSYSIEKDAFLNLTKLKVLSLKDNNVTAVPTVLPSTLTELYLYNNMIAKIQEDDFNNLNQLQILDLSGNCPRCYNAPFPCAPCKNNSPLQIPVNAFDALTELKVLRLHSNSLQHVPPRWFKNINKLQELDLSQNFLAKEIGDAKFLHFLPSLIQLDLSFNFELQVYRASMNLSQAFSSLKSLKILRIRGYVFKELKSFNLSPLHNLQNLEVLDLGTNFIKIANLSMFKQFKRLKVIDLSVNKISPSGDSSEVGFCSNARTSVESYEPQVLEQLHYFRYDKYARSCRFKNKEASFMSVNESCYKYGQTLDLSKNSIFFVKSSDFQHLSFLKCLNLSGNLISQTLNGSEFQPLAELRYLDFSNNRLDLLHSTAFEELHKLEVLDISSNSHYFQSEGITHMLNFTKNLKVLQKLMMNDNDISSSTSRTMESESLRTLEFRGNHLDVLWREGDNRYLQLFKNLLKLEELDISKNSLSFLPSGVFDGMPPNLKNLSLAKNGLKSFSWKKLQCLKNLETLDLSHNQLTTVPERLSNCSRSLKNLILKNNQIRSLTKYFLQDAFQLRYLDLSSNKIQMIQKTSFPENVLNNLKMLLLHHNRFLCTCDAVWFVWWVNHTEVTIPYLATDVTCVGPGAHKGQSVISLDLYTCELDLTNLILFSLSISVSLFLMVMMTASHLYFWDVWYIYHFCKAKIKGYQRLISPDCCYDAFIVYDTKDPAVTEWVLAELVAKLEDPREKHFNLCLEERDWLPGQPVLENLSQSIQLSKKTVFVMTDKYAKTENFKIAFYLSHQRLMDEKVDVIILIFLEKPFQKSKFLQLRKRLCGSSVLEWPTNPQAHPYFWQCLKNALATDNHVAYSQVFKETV

The target in test [4] is human TLR8 (Homo sapiens (Human), UniProt Q9NR97). Briefly: Human TLR8 assay (TLR8/NF-kB/SEAPorter HEK 293 Cell Line). Format: cell-based. The settings on record: SEAP induction, overnight incubation at 37° C., 0.1% DMSO; read-out: TLR8 pEC50 (converted). From the text: TLR8/NF-kB/SEAPorter™ HEK 293 Cell Line (Imgenex Corporation) is a stably co-transfected cell line which expresses full-length human TLR8 and the secreted alkaline phosphatase (SEAP) reporter gene under the transcriptional control of an NF-κB response element. TLR8 expression in this cell line has been tested by flow cytometry. Transfectants with stable expression were selected using the antibiotic blasticidin and geneticin. TLR signaling leads to the translocation of NF-κB and activation of the promoter results in expression of the SEAP gene. TLR8-specific activation was assessed by determining the level of SEAP produced following overnight incubation of the cells at 37° C. with the standard compound in the presence of 0.1% (v/v) dimethylsulfoxide (DMSO). Concentration dependent induction of SEAP production by compounds was expressed as the concentration of compound which produced half of the maximal level of SEAP induction for that compound (EC50).
human TLR8, sequence (Q9NR97 27-1041): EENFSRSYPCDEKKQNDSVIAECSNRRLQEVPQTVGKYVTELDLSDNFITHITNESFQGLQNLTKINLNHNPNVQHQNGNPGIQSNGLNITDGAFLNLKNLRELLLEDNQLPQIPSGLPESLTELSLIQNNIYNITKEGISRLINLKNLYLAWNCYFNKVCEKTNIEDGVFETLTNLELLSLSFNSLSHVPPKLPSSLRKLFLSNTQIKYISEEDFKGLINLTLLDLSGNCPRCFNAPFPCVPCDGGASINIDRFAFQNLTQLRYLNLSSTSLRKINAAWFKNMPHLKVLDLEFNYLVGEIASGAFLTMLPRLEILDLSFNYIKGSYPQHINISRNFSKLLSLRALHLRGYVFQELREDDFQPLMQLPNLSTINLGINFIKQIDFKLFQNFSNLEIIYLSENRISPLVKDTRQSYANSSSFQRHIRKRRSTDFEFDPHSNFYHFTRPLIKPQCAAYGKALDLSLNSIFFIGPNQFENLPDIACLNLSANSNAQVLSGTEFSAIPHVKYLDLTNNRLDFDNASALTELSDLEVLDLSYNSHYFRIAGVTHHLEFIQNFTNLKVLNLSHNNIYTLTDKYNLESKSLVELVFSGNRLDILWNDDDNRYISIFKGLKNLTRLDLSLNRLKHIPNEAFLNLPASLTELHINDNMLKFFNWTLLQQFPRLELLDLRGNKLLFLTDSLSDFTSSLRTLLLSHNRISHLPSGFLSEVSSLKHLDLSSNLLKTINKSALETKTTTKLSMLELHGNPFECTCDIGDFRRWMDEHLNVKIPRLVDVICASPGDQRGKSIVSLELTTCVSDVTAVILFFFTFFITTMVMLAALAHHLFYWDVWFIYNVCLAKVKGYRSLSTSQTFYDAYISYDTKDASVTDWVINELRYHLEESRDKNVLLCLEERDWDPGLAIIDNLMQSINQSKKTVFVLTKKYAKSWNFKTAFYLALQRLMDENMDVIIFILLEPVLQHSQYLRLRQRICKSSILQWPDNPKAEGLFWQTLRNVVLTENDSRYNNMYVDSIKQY

The test system of test [5] is CT26 mouse tumour cells. Nature of the test: Survival studies in CT26, a murine syngeneic colon carcinoma tumour model. The format is in vivo. The settings on record: Balb/C mice; RT 2Gy x5 plus 5 mg/kg once a week i.v.; vs control or RT; FIG. 13. As for the experimental part:
Experiments were conducted on female mice (Balb/C genotype, at least 5 weeks old). CT26 mouse tumour cells (CRL-2638) were purchased from ATCC. CT26 mouse tumour cells (1×10^6) were implanted subcutaneously in the flank of mice on day 0. Mice in radiotherapy alone (RT) group and combination group were anesthetized and received radiation therapy (2Gy) at days 7, 8, 9, 10, and 11. Mice in combination group were also treated with a compound of Example 3 (30 mg/kg once a week) administered orally (p.o.) or Example 4 (5 mg/kg once a week) administered intravenously (i. v.) on days 7, 14, 22, and 27. Tumour volumes were assessed at least twice weekly by bilateral vernier caliper measurements. Survival period was determined by the time taken for tumours to reach 4 times the volume at the time of treatment.

Test [6] concerns the target hERG ion channel (Homo sapiens (Human), UniProt Q12809). Briefly: hERG Analysis - Method 1 (IONWORKS HT, CHO-hERG cells). Format: cell-based. To be noted: ~21° C. How it is done:
The hERG-expressing Chinese hamster ovary K1 (CHO) cells described by (Persson, Carlsson, Duker, & Jacobson, 2005) were grown to semi-confluence at 37° C. in a humidified environment (5% CO2) in F-12 Ham medium containing L-glutamine, 10% foetal calf serum (FCS) and 0.6 mg/mL hygromycin (all available from Sigma-Aldrich). Prior to use, the monolayer was washed using a pre-warmed (37° C.) 3 mL aliquot of Versene 1:5,000 (Invitrogen) After aspiration of this solution the flask was incubated at 37° C. in an incubator with a further 2 mL of Versene 1:5,000 for a period of 6 minutes. Cells were then detached from the bottom of the flask by gentle tapping and 10 mL of Dulbecco's Phosphate-Buffered Saline containing calcium (0.9 mM) and magnesium (0.5 mM) (PBS; Invitrogen) was then added to the flask and aspirated into a 15 mL centrifuge tube prior to centrifugation (50 g, for 4 mins). The resulting supernatant was discarded and the pellet gently re-suspended in 3 mL of PBS. A 0.5 mL aliquot of cell suspension was removed and the number of viable cells (based on trypan blue exclusion) was determined in an automated reader (Cedex; Innovatis) so that the cell re-suspension volume can be adjusted with PBS to give the desired final cell concentration. It is the cell concentration at this point in the assay that is quoted when referring to this parameter. CHO-Kv1.5 cells, which were used to adjust the voltage offset on IONWORKS™ HT, were maintained and prepared for use in the same way.
The principles and operation of this device have been described by (Schroeder, Neagle, Trezise, & Worley, 2003). Briefly, the technology is based on a 384-well plate (PATCHPLATE™) in which a recording was attempted in each well by using suction to position and hold a cell on a small hole separating two isolated fluid chambers. Once sealing had taken place, the solution on the underside of the PATCHPLATE™ was changed to one containing amphotericin B. This permeablises the patch of cell membrane covering the hole in each well and, in effect, allowed a perforated, whole-cell patch clamp recording to be made.
A β-test IONWORKS™ HT from Essen Instrument was used. […] (˜21° C.), as follows. The reservoir in the “Buffer” position was loaded with 4 mL of PBS and that in the “Cells” position with the CHO-hERG cell suspension described above. A 96-well plate (V-bottom, Greiner Bio-one) containing the compounds to be tested (at 3-fold above their final test concentration) was placed in the “Plate 1” position and a PATCHPLATE™ was clamped into the PATCHPLATE™ station. […]

hERG potassium channel, sequence (Q12809 whole entry): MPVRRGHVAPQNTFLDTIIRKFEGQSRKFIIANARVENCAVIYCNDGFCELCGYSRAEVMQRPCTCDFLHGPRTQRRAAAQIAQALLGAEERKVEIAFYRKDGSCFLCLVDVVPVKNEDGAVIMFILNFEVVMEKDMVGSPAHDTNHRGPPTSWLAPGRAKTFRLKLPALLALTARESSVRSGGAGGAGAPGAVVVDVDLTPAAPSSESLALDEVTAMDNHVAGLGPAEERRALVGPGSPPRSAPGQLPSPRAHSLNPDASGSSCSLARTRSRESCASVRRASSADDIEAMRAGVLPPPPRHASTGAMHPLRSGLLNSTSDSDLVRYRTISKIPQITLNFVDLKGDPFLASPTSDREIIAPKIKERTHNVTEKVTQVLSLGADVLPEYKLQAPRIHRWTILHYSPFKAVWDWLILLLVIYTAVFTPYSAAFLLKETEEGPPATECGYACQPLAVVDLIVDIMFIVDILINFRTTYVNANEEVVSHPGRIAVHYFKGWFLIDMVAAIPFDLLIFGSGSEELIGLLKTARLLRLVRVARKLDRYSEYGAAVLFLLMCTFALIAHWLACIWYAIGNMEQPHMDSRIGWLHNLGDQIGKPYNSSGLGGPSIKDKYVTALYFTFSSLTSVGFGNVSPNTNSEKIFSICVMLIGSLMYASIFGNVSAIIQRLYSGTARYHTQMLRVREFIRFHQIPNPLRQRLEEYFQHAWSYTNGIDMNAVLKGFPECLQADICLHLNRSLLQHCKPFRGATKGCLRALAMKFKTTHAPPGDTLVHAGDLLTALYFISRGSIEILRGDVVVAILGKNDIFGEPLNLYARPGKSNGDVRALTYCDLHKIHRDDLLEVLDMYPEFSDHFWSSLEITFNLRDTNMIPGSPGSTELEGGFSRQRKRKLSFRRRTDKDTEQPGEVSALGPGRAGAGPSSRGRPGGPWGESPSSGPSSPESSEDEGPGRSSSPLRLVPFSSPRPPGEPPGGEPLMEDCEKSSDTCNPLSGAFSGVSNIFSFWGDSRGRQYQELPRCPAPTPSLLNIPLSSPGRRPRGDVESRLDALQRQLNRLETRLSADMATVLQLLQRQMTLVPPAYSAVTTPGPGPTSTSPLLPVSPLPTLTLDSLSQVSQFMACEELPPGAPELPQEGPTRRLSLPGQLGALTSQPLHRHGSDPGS
hERG ion channel, sequence (Q12809 whole entry): as above

As a reminder, the IC50 is the concentration needed to halve the response being measured. A low value points to higher potency. Take `CCC[C@@H](CCO)Nc1nc(N)nc(C)c1Cc1ccc(CN(CC(=O)O)CC(F)(F)F)cc1OC` [Example 4, (S)-2-((4-((2-amino-4-(1-hydroxyhexan-3-ylamino)-6-methylpyrimidin-5-yl)methyl)-3-methoxybenzyl)(2,2,2-trifluoroethyl)amino)acetic acid]: in test [1], the Tumour growth inhibition result is “inhibited tumour growth”. Moreover, in test [2], the IC50 was > 10 µM. Further, the values for the EC50 in test [3] and in test [4] were 0.1 µM and > 10 µM, respectively. The “Survival period (time for tumours to reach 4 times the volume at treatment)” value in test [5] is reported as “survived significantly longer”.
Take `CCC[C@@H](CCO)Nc1nc(N)nc(C)c1Cc1ccc(CN(CCC(=O)O)CC(F)F)cc1OC` [Example 6, (S)-3-((4-((2-amino-4-(1-hydroxyhexan-3-ylamino)-6-methylpyrimidin-5-yl)methyl)-3-methoxybenzyl)(2,2-difluoroethyl)amino)propanoic acid]: the IC50 in test [6] was > 33 µM; in test [2] it was > 10 µM. Moreover, the EC50 in test [3] is 0.251 µM; in test [4] it was > 10 µM.
